Data published in US7138423B2, “Arylpyrrolidine derivatives as NK-1 /SSRI antagonists” (Bristol-Myers Squibb Company, priority 2004, dated 2006).
pIC50: −log10 of the molar value. Where a name gives a salt, the structure may show the parent alone.

Legend:
[1] = biological target: T1, human serotonin transporters (Homo sapiens, UniProt P31645); assay: Serotonin transporter binding assay, [3H]-citalopram, HEK-hSERT membranes; conditions: for pIC50: HEK-hSERT membranes, 1 nM [3H]-citalopram displacement, read-out: SERT IC50; for activity for SERT: summary statement referring to Table 1
T1 construct: expressed in transfected cells; host or cells: HEK-293 cells stably expressing hSERT (G418 selection), membranes
Procedure: Serotonin Transporter Binding Assay
HEK-293 cells that stably express human serotonin transporters (HEK-hSERT cells) were grown at 37° C. in 5% CO2 as a monolayer in medium consisting of EMEM supplemented with 10% fetal bovine serum and G418 sulfate (500 μg/ml). To prepare membranes for radioligand binding experiments, cells were rinsed twice with phosphate-buffered saline (138 mM NaCl, 4.1 mM KCl, 5.1 mM Na2PO4, 1.5 mM […], 11.1 mM glucose, pH 7.4). Cells were transferred from plates to polypropylene tubes (16×100 mm), centrifuged at 1,200×g for 5 min and were frozen at −80° C. until assay. Following centrifugation, pellets were resuspended by homogenization in buffer consisting of 50 mM Tris (pH 7.7 at 25° C.), 120 mM NaCl and 5 mM KCl and then centrifuged at 32,000×g for 10 min. Following centrifugation, supernatants were discarded and pellets were resuspended in buffer consisting of 50 mM Tris (pH 7.4 at 25° C.), 150 mM NaCl and 5 mM KCl. Membrane homogenates (200 μl/plate) were incubated with 1 nM [^3H]-citalopram (specific activity=85 Ci/mmol) and increasing concentrations of test compounds for 1 hr at 25° C. in a total volume of 250 μl. The assay buffer consisted of 50 mM Tris (pH 7.4 at 25° C.), 120 mM NaCl and 5 mM KCl (pH 7.4 with conc. HCl). Plates were incubated for 1 hr at 25° C., then filtered through 0.5% PEI treated Whatman GF/B filters using a Brandel cell harvester. Filters were washed three times with 3 ml of ice-cold Tris wash buffer. Non-specific binding was defined with 10 μM fluoxetine. Amount of radioligand bound in the presence and absence of competitor was analyzed by plotting (−)log drug concentration versus the amount of radioligand specifically bound. The midpoint of the displacement curve (IC50, nM), signifies the potency. Ki values were calculated using the method of Cheng and Prusoff [Cheng, Y.-C. and Prusoff, W. H., Biochemical Pharmacology, Vol. 22, pp. 3099–3108, Pergamon Press (1973)].

[2] = biological target: T2, neurokinin-1 (NK-1) receptor (Homo sapiens, UniProt P25103); assay: NK-1 binding, [125I] Substance P competition, U373 cell membranes; conditions: for pIC50: U373 membranes, Bolton Hunter [125I] Substance P displacement; for activity for NK-1: summary statement referring to Table 1
T2 construct: a human glioblastoma-astrocytoma cell line that endogenously expresses the neurokinin-1 (NK-1) receptor; endogenous in cells; host or cells: U373 human glioblastoma-astrocytoma cells (membranes)
Procedure: U373 cells, a human glioblastoma-astrocytoma cell line that endogenously expresses the neurokinin-1 (NK-1) receptor, were grown in a monolayer culture at 37° C. in 5% CO2 and fed with Minimum Essential Medium (MEM) supplemented with 10% fetal bovine serum. Membranes were prepared as follows: Cells were washed twice with ice-cold phosphate-buffered saline (pH 7.4) and then incubated for 5 to 10 minutes with ice-cold 10 mM Tris buffer (pH 7.4) containing 5 mM EDTA. Cells were removed from plates, homogenized, and centrifuged at 32,000×g for 20 minutes. The resulting supernatant was discarded, and the pellet resuspended by homogenization in 50 mM Tris buffer (pH 7.4) containing 1 mM EDTA and centrifuged at 32,000×g for 20 minutes. The resulting supernatant was discarded, and the pellet resuspended by homogenization in NK-1 binding assay buffer (50 mM Tris-HCL (pH 7.4), 3 mM MnCl2, 200 μg/ml BSA, 5 μg/ml chymostatin, 40 μg/ml bacitracin and 4 μg/ml leupeptin).
On the day of an experiment the membrane preparation was thawed, homogenized and diluted with NK-1 binding assay buffer to the appropriate concentration. Competition binding assays were performed in 96 well plate format by incubating membranes (5–10 ug/well) with Bolton Hunter labeled [^125I] Substance P, at a concentration of […], and concentrations of drugs ranging from 10000 to 0.01 nM. Samples were incubated for 30 min at 20° C. then filtered through GF/B glass fiber filters (pretreated with 1% polyethyleneimine and 0.3% Triton X-100) using a Brandel cell harvester. The filters were then washed with 10 ml ice cold 50 mM Tris-HCL (pH 7.4) containing 3 mM MgCl2. Non-specific was defined in the presence of 2 μM L-733,060 (a non-peptide NK-1 antagonist). Amount of radioligand bound in the presence and absence of competitor was analyzed by plotting (−)log drug concentration versus the amount of radioligand specifically bound. The midpoint of the displacement curve (IC50, nM), signifies the potency. Ki values were calculated using the method of Cheng and Prusoff [Cheng, Y.-C. and Prusoff, W. H., Biochemical Pharmacology, Vol. 22, pp. 3099–3108, Pergamon Press (1973)].

T2 sequence (P25103 whole entry): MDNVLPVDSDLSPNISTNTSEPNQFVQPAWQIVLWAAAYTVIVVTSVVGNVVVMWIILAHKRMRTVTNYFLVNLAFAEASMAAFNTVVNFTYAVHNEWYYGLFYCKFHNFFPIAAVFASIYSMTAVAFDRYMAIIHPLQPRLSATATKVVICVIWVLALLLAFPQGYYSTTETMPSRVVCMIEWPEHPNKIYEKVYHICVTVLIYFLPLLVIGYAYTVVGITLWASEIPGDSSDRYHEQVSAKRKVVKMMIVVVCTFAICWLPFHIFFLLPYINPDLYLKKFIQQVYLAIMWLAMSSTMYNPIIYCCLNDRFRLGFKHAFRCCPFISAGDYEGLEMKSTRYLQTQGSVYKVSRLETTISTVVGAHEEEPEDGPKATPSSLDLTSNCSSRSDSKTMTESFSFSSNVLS
T1 sequence (P31645 whole entry): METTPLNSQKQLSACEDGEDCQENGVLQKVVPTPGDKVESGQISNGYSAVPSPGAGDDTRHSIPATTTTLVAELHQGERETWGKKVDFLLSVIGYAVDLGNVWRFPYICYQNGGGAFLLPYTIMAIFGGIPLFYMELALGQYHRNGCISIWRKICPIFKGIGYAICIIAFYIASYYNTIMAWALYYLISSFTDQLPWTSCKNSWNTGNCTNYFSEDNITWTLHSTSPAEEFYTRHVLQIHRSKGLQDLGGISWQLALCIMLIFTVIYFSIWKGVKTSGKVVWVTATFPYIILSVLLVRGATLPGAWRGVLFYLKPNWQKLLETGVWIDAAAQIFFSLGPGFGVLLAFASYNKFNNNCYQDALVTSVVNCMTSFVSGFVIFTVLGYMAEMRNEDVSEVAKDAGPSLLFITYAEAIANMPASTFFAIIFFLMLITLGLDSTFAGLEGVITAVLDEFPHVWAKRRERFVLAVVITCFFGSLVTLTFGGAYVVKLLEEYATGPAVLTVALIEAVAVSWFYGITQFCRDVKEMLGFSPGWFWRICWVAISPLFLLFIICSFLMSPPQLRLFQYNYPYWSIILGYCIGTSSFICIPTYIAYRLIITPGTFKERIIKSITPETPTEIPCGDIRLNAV

Row | Structure (SMILES) | pIC50 [1] | pIC50 [2] | activity for SERT [1] | activity for NK-1 [2]
1 | FC(F)(F)c1cccc(COC[C@@H]2CNC[C@H]2c2ccccc2)c1 (relative stereo) [Example 6, Trans-3-((3-trifluoromethylbenzyloxy)-methyl)-4-phenylpyrrolidine] | 7.00 to 7.70 |  |  | 
2 | FC(F)(F)c1cc(COC[C@@H]2CNC[C@H]2c2c[nH]c3ccccc23)cc(C(F)(F)F)c1 (relative stereo) [Example 8, Trans-3-(4-((3,5-bis(trifluoromethyl)benzy-loxy)methyl)pyrrolidin-3-yl)-1H-indole] |  | 6.52 to 7.00 |  | 
3 | Cc1cc(C)cc(OC[C@@H]2CNC[C@H]2c2ccccc2)c1 (relative stereo) [Example 11, Trans-3-((3,5-dimethylphenoxy)methyl)-4-phenylpyrrolidine hydrochloride] | 7.00 to 7.70 |  |  | 
4 | FC(F)(F)c1cc(OC[C@@H]2CNC[C@H]2c2c[nH]c3ccccc23)cc(C(F)(F)F)c1 (relative stereo) [Example 12, Trans-3-(4-((3,5-bis(trifluoromethyl)phenoxy)methyl)pyrrolidin-3-yl)-1H-indole] |  | 6.52 to 7.00 |  | 
5 | FC(F)(F)c1cc(OCC2CNCC2c2ccccc2)cc(C(F)(F)F)c1 (stereo not drawn) [Example 10, Trans-3-((3,5-bis(trifluoromethyl)phenoxy)methyl)-4-phenylpyrrolidine trifluoroacetic acid salt] | 7.00 to 7.70 | 6.52 to 7.00 | have activity | have activity
6 | Cc1cc(C)cc(COCC2CNCC2c2ccccc2)c1 (stereo not drawn) [Example 2, Trans-3-((3,5-dimethylbenzyloxy)-methyl)-4-phenylpyrrolidine] | 7.00 to 7.70 | 6.52 to 7.00 | have activity | have activity
7 | Fc1cc(F)cc(COC[C@@H]2CNC[C@H]2c2ccccc2)c1 (relative stereo) [Example 4, Trans-3-((3,5-difluorobenzyloxy)methyl)-4-phenylpyrrolidine] | 7.00 to 7.70 |  |  | 
8 | FC(F)(F)c1cc(COC[C@@H]2CNC[C@H]2c2ccccc2)cc(C(F)(F)F)c1 (relative stereo) [Example 1, Trans-3-((3,5-bis(trifluoromethyl)benzyloxy)methyl)-4-phenylpyrrolidine hydrochloride] |  | 7.00 to 7.70 |  | 
9 | FC(F)(F)c1ccccc1COC[C@@H]1CNC[C@H]1c1ccccc1 (relative stereo) [Example 5, Trans-3-((2-trifluorobenzyloxy)-methyl)-4-phenylpyrrolidine] | 6.52 to 7.00 |  |  | 
